From article PMC8399847, “Hybrid Quinolinyl Phosphonates as Heterocyclic Carboxylate Isosteres: Synthesis and Biological Evaluation against Topoisomerase 1B (TOP1B)” (Pharmaceuticals, 2021)

Experiments:
[1] = test system: L. infantum promastigotes; test: In vitro iRFP-L. infantum promastigotes viability assay; type: cell-based; conditions: Leishmania infantum; 96 h exposure, EC50 ± SD
Description: (§1) The effect of the new quinolinylphosphonate derivatives 7 synthesized was assessed on both free-living promastigotes and intramacrophage amastigotes of L. infantum as it is described in experimental protocols. Primary cultures of intramacrophage amastigotes were obtained from splenic explants from 6-weeks infected Balb/c mice with L. infantum-iRFP promastigotes. The infrared fluorescence emitted by both stage forms of the parasite was used as viability criterium, using 0.5% DMSO as negative control (100% viability) and […] AMB as a positive control (0% viability).
A genetically modified strain of L infantum BCN 150, expressing iRFP protein from Rhodopseudomonas palustris bacteriophytochrome (iRFP-L. infantum), was used to obtain the EC50 values of the different compounds against promastigotes, through the detection of the near-infrared radiation emitted by living parasites exposed to tested molecules. Thus, the viability of promastigotes was calculated after recording their fluorescence at 708 nm in an Odyssey (Li-Cor, NE, USA) infrared imaging.
iRFP-L. infantum promastigotes were cultured using M199 medium (Gibco, Thermo Fisher Scientific, MA, USA), supplemented with 25 mM 4-(2-hydroxyethyl)-1-piperazineethanesulfonic acid (HEPES) pH 6.9, […] hemin, 10 mM glutamine, 0.1 mM adenosine, 0.01 mM folic acid, 1× RPMI 1640 vitamin mix (Sigma, Darmstadt, Germany), 10% (v/v) heat-inactivated foetal bovine serum (Gibco, Thermo Fisher Scientific, MA, USA), 50 U/mL penicillin and 50 µg/mL streptomycin. The assay was carried out, seeding 1 × 10^6 cells/mL of iRFP-L. infantum promastigotes into 96-well optical bottom black plates (Thermo Scientific, MA, USA) along with different concentrations of compound to each well. The final concentration of DMSO, the solvent used to prepare the stock solutions of compounds, was never higher than 0.1%. All of the compounds’ concentrations and controls were assayed by triplicate.

[2] = test system: murine splenocytes; test: Splenocyte viability, Alamar Blue; type: cell-based, BALB/c mice; conditions: for IC50: Mus musculus, Splenocyte, read-out: IC50 Splenocites; for SI (selectivity index): ratio IC50 splenic cells / EC50 amastigotes
Description: The viability of splenocytes cells against the different compounds was measured using the Alamar Blue staining method (Invitrogen, MA, USA). For this purpose, these cells were obtained following the protocol indicated in the previous section, from uninfected mice. Plots of absorbance of viable cells (obtained following manufacturer’s recommendations of Alamar Blue) vs compounds concentration were used to calculate CC50 values. Plots were fitted by nonlinear analysis using the Sigma Plot 10.1 statistical package. The assays were performed by triplicate.
The selectivity index for each compound was calculated as the ratio between the IC50 value for splenic cells and the EC50 value for amastigotes.

[3] = test system: A549 (human lung adenocarcinoma cells); test: CCK-8 cytotoxicity assay, A549; type: cell-based; conditions: A549, 48 h, read-out: Cytotoxicity IC50 Lung A549
Description: (§2) The cytotoxicity of the newly synthesized quinolinylphosphonates 7 was evaluated in vitro by testing their antiproliferative activities against several human cancer cell lines: A549 (human lung adenocarcinoma cells), SKOV3 (human ovarian carcinoma), and HEK293 (human embryonic kidney). In order to analyze the selective cytotoxicity facing exclusively cancerous cell lines, cytotoxicity against non-cancerous cell lines (MRC-5, lung fibroblast cells) was also evaluated. Cell counting kit (CCK-8) assay was employed to assess growth inhibition and, cell proliferation inhibitory activities of compounds that are listed in Table 1 as IC50 values. […] According to the data presented in Table 1, in general, all these phosphorated derivatives present higher selective cytotoxicity in the A549 cell line than in the other two cell lines, SKOV3 and HEK293, although slight differences are observed compared to human ovarian carcinoma (SKOV3).
(§3) Cells were cultured according to the supplier’s instructions, A549 (ATCC® CCL-185), SKOV3 (ATCC® HTB-77), HEK293 (CLS GmbH), MRC-5 (ATCC® CCL-171™). Cells were seeded in 96-well plates at a density of 2–2.5 × 10^3 cells per well and incubated overnight in 0.1 mL of media supplied with 10% Fetal Bovine Serum (Lonza, Basel, Switzerland) in a 5% CO2 incubator at 37 °C. On day 2, drugs (concentration between 0.5–50 μM) were added and samples were incubated for 48 h. After treatment, 10 μL of cell counting kit-8 was added to each well for an additional 2 h incubation at 37 °C. The absorbance of each well was determined by an Automatic Elisa Reader System at 450 nm wavelength. CPT was purchased from Sigma-Aldrich and used as a positive control.

[4] = test system: HEK293 (human embryonic kidney); test: CCK-8 cytotoxicity assay, HEK293; type: cell-based; conditions: HEK293, 48 h, CCK-8, 50% growth inhibition
Description: as §2, §3

[5] = test system: L. infantum amastigotes; test: Ex vivo murine splenic explant culture, intramacrophage amastigotes; type: cell-based; conditions: Leishmania infantum, Hec50; intramacrophage amastigotes in splenic explants, 96 h, EC50 ± SD
Description: as §1
The EC50 values of compounds against the amastigote forms were calculated using a cell suspension obtained from spleens extracted from BALB/c mice. Mice had been infected previously with iRFP L. infantum metacyclic promastigotes and sacrificed five weeks after infection. To obtain the cell suspension containing amastigotes, spleens washed with cold phosphate-buffered saline (PBS), were cut into pieces, and incubated with 5 mL of 2 mg/mL collagenase D (Sigma, Darmstadt, Germany), which was prepared in buffer (10 mM HEPES, pH 7.4, 150 mM NaCl, 5 mM KCl, 1 mM MgCl2 and 1.8 mM CaCl2) for 20 min. Subsequently, these cells were passed through a 100 µm cell strainer, collected by centrifugation (500× g for 7 min at 4 °C), washed twice with PBS, and suspended in RPMI medium (Gibco, Thermo Fisher Scientific, MA, USA) supplemented with 10 mM HEPES, 1 mM sodium pyruvate, 1xRPMI 1640 vitamin mix, 10% (v/v) FBS, 50 U/mL penicillin and 50 µg/mL streptomycin, at 37 °C under a 5% CO2 atmosphere.
To assay the effect of the different compounds against amastigotes, which infect splenic cells, these cells were seeded to confluence into 384-well black optical bottom plates (Thermo Scientific, Waltham, MA, USA) in addition to different concentrations of compound to each well. The viability of amastigotes was calculated by recording their fluorescence at 708 nm in an Odyssey (Li-Cor, NE, USA) infrared imaging system, after 96 h of exposure. Plots of the infrared fluorescence against the concentrations of tested compounds were fitted by nonlinear analysis using the Sigma Plot 10.1 statistical package and used to calculate EC50 values. As well as promastigotes viability, the assays were performed in triplicate.

SMILES | EC50 [1] | IC50 [2] | SI (selectivity index) [2] | IC50 [3] | IC50 [4] | EC50 [5]
CCOP(=O)(OCC)c1cccc2c(-c3ccccc3)cc(-c3ccccc3)nc12 [7a, Diethyl (2,4-diphenylquinolin-8-yl)phosphonate] | 0.91 ± 0.04 µM | 3.61 ± 0.45 µM | 0.9 | 2.26 ± 0.59 µM | 27.3 ± 2.22 µM | 4.03 ± 0.3 µM
CCOP(=O)(OCC)c1cccc2c(-c3ccccc3)cc(-c3ccc(F)cc3)nc12 [7b, Diethyl (4-Phenyl-2-(fluorophenyl)quinolin-8-il) phosphonate] | 7.63 ± 0.76 µM | 12.2 ± 1.77 µM | 0.8 | 2.16 ± 0.29 µM | 43 ± 4.65 µM | 14.6 ± 1.3 µM
CCOP(=O)(OCC)c1cccc2c(-c3ccccc3)cc(-c3ccc(OC)cc3)nc12 [7c, Diethyl (2-(4-methoxyphenyl)-4-phenylquinolin-8-yl)phosphonate] | 9.46 ± 1.67 µM | 15.9 ± 1.65 µM | 1.9 | 12.6 ± 1.3 µM | 38.3 ± 8.9 µM | 8.23 ± 1.7 µM
CCOP(=O)(OCC)c1cccc2c(-c3ccccc3)cc(-c3ccccc3OC)nc12 [7d, Diethyl (2-(2-methoxyphenyl)-4-phenylquinolin-8-yl)phosphonate] | 11.4 ± 0.62 µM | 30.1 ± 6.05 µM | 1.5 | 12.3 ± 4.1 µM | > 50 µM | 19.5 ± 2.38 µM
CCOP(=O)(OCC)c1cccc2c(-c3ccccc3)cc(-c3ccc4ccccc4c3)nc12 [7e, Diethyl (2-(naphthalen-2-yl)-4-phenylquinolin-8-yl)phosphonate] | 20.4 ± 1.57 µM | 51.6 ± 1.52 µM | 2.5 | 3.18 ± 0.27 µM | 48.1 ± 6.39 µM | 20.4 ± 5.62 µM
CCOP(=O)(OCC)c1cccc2c(-c3ccccc3)cc(-c3cccc4ccccc34)nc12 [7f, Diethyl (2-(naphthalen-1-yl)-4-phenylquinolin-8-yl)phosphonate] | 20.6 ± 2.19 µM | 12.2 ± 1.49 µM | 0.6 | 2.66 ± 0.16 µM | 35.7 ± 3.13 µM | 19.7 ± 2.39 µM
CCOP(=O)(OCC)c1cccc2c(-c3ccc(F)cc3)cc(-c3ccccc3)nc12 [7g] | 16.1 ± 1.94 µM | 33.9 ± 7.98 µM | 2.8 | 2.27 ± 0.32 µM | 24.4 ± 3.46 µM | 11.9 ± 5.17 µM
CCOP(=O)(OCC)c1cccc2c(-c3ccc(F)cc3)cc(-c3ccc(F)cc3)nc12 [7h, Diethyl (2,4-bis(4-fluorophenyl)quinolin-8-yl)phosphonate] | 8.43 ± 0.92 µM | 20.3 ± 7.49 µM | 0.8 | 3.07 ± 0.22 µM | 15.7 ± 1.74 µM | 24.2 ± 2.37 µM
CCOP(=O)(OCC)c1cccc2c(-c3ccc(F)cc3)cc(-c3ccc(F)c(F)c3)nc12 [7i, Diethyl (2-(3,4-difluorophenyl)-4-(4-fluorophenyl)quinolin-8-yl)phosphonate] | 6.35 ± 0.16 µM | 20.6 ± 3.11 µM | 1.5 | 4.64 ± 0.3 µM | > 50 µM | 13.4 ± 5.53 µM
CCOP(=O)(OCC)c1cccc2c(-c3ccc(C)cc3)cc(-c3ccc(F)cc3)nc12 [7j, Diethyl (2-(4-fluorophenyl)-4-(p-tolyl)quinolin-8-yl)phosphonate] | 7.29 ± 0.94 µM | 14.5 ± 1.56 µM | 1.5 | 0.83 ± 0.01 µM | > 50 µM | 9.8 ± 0.48 µM
CCOP(=O)(OCC)c1cccc2c(-c3ccc(C)cc3)cc(-c3ccc(F)c(F)c3)nc12 [7k, Diethyl (2-(3,4-difluorophenyl)-4-(p-tolyl)quinolin-8-yl)phosphonate] | 2.59 ± 0.48 µM | 24.1 ± 7.79 µM | 0.9 | 2.72 ± 0.37 µM | 22.3 ± 1.36 µM | 26.2 ± 3.65 µM
CC(C)OP(=O)(OC(C)C)c1cccc2c(-c3ccccc3)cc(-c3ccc(F)cc3)nc12 [7l, Diisopropyl (2-(4-fluorophenyl)-4-phenylquinolin-8-yl)phosphonate] | 9.57 ± 0.4 µM | 22.1 ± 4.7 µM | 1.1 | 5.01 ± 2.7 µM | 10.1 ± 1.26 µM | 19.5 ± 2.23 µM
CC(C)OP(=O)(OC(C)C)c1cccc2c(-c3ccccc3)cc(-c3ccc(F)c(F)c3)nc12 [7m, Diisopropyl (2-(3,4-difluorophenyl)-4-phenylquinolin-8-yl)phosphonate] | 11.2 ± 0.74 µM | 19.8 ± 3.76 µM | 1.9 | 18.4 ± 1.4 µM | > 50 µM | 10.2 ± 1.34 µM
CC(C)OP(=O)(OC(C)C)c1cccc2c(-c3ccc(F)cc3)cc(-c3ccc(F)cc3)nc12 [7n, Diisopropyl (2,4-bis(4-fluorophenyl)quinolin-8-yl)phosphonate] | 4.86 ± 0.5 µM | 15.3 ± 1.72 µM | 2.8 | 10.6 ± 1.73 µM | 15 ± 0.99 µM | 5.52 ± 1.11 µM
